What was measured:
FGR = molecular target: T1, FGR (Homo sapiens, UniProt P09769); set-up: method as in Bollag et al., 2010; details: ref Bollag et al., 2010; read-out: Published biochemical IC50; cited from earlier work
T1 construct: purchased KINOMEscan (DiscoveRx), San Diego, CA

ASK1 = molecular target: T2, ASK1 (Homo sapiens, UniProt Q99683); experiment: In vitro kinase assay (Reaction Biology); type: biochemical; details: run in parallel
T2 construct: purchased Reaction Biology
Description: . Average percent inhibition was reported. […]

BLK = molecular target: T3, BLK (Homo sapiens, UniProt P51451); set-up: method as in Bollag et al., 2010; details: ref Bollag et al., 2010; read-out: Published biochemical IC50; cited from earlier work
T3 construct: purchased KINOMEscan (DiscoveRx), San Diego, CA

ASK1 (MAP3K5) = molecular target: T4, ASK1 (MAP3K5) (Homo sapiens, UniProt Q99683); set-up: method as in Bollag et al., 2010; details: ref Bollag et al., 2010; read-out: Published biochemical IC50; cited from earlier work
T4 construct: purchased KINOMEscan (DiscoveRx), San Diego, CA
T4 sequence (Q99683 1-1374): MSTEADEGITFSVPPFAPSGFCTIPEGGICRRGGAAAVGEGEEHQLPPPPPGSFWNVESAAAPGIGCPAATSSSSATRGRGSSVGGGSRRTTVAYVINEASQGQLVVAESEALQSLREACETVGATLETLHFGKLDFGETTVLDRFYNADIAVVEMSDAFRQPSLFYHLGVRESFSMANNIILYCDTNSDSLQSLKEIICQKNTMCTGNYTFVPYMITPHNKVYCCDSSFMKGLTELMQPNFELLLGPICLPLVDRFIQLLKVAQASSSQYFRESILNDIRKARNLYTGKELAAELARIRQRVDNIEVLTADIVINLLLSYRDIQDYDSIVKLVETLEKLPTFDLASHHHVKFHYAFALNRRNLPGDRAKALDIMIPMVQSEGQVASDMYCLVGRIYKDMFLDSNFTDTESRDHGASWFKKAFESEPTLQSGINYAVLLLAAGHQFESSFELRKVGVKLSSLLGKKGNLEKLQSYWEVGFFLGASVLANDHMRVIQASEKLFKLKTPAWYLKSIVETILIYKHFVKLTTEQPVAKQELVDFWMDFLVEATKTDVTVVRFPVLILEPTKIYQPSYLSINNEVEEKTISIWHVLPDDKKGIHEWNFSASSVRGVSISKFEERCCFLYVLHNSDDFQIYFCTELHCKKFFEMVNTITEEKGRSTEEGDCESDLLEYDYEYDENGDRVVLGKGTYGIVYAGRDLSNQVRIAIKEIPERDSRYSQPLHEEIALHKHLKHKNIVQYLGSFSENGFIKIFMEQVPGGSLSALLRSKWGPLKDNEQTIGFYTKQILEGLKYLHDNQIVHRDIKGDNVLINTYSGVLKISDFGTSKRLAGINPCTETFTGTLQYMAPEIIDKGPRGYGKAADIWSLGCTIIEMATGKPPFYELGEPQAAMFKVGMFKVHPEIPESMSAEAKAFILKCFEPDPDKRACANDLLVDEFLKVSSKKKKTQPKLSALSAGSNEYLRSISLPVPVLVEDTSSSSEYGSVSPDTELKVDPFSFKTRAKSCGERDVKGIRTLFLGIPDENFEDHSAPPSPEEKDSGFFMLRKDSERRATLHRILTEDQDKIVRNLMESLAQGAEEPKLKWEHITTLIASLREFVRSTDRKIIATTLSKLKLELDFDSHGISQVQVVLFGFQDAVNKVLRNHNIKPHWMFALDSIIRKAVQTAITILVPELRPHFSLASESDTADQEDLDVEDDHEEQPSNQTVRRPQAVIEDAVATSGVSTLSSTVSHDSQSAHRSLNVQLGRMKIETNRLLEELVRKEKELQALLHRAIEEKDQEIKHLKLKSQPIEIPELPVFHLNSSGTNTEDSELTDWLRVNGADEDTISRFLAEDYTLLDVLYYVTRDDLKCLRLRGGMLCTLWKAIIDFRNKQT

MINK (MINK1) = molecular target: T5, MINK (MINK1) (Homo sapiens, UniProt Q8N4C8); set-up: method as in Bollag et al., 2010; details: ref Bollag et al., 2010; read-out: Published biochemical IC50; cited from earlier work
T5 construct: purchased KINOMEscan (DiscoveRx), San Diego, CA

TAOK3 = molecular target: T6, TAOK3 (Homo sapiens, UniProt Q9H2K8); set-up: method as in Bollag et al., 2010; details: ref Bollag et al., 2010; read-out: Published biochemical IC50; cited from earlier work
T6 construct: purchased KINOMEscan (DiscoveRx), San Diego, CA

BRK (PTK6) = BRK (PTK6) (Homo sapiens, UniProt Q13882); details: ref Bollag et al., 2010; read-out: Published biochemical IC50; cited from earlier work
[1] = test system: phospho-JNK and phospho-p38; experiment: Western blot, UV-induced phospho-JNK and phospho-p38 in NHEKs; type: cell-based, human; details: NHEK, 1 μM, most significantly at 6 and 24 hr
Description: We next examined the responses of primary normal human epidermal keratinocytes (NHEKs) to vemurafenib. […] In probing members of the BCL2 family, we found similar results to those in the cSCC and HaCaT cell lines. […] The advantage of using primary cells is that p53 is intact.
Figure 2. […] DOI: http://dx.doi.org/10.7554/eLife.00969.010 [drawing 5]

MAP4K5 = molecular target: T7, MAP4K5 (Homo sapiens, UniProt Q9Y4K4); set-up: method as in Bollag et al., 2010; details: ref Bollag et al., 2010; read-out: Published biochemical IC50; cited from earlier work
T7 construct: purchased KINOMEscan (DiscoveRx), San Diego, CA

NHEK cells = experiment: UV-induced apoptosis, FACS Annexin V+, TMRE-low; type: cell-based, human; details: 1 kJ/m^2 UVB, 1 μM, 24 hr, vs DMSO
[2] = test system: A375 and WM35 BRAF^V600E melanoma cell lines; experiment: Growth of BRAF^V600E melanoma cell lines; type: cell-based, human; details: bioequivalent doses: dabrafenib 0.05 μM, PLX4720 1.0 μM
[3] = test system: cSCC (SRB1, SRB12, COLO16) and HaCaT cell lines; experiment: Long-term proliferation (serial passage and counting, at least 28 days); type: cell-based, human
HaCaT cells [4] = experiment: UV-induced apoptosis, FACS Annexin V+, TMRE-low; type: cell-based, human; details: 1 kJ/m^2 UVB, 1 μM, 24 hr, vs DMSO
[5] = test system: HRAS^G12V-transformed HaCaT cells (SCR, TKD); experiment: Soft agar colony formation; type: cell-based, human; details: 1.0 μM, SCR and TKD cells
phospho-ERK = details: A375 and WM35
MLK3 (MAP3K11) = molecular target: T8, MLK3 (MAP3K11) (Homo sapiens, UniProt Q16584); experiment: Quantitative competitive binding assay (KINOMEscan)
T8 construct: purchased KINOMEscan (DiscoveRx), San Diego, CA

HaCaT cells [6] = experiment: Doxorubicin-induced apoptosis, FACS; details: 1 μM, 24 hr

T8 sequence (Q16584 whole entry): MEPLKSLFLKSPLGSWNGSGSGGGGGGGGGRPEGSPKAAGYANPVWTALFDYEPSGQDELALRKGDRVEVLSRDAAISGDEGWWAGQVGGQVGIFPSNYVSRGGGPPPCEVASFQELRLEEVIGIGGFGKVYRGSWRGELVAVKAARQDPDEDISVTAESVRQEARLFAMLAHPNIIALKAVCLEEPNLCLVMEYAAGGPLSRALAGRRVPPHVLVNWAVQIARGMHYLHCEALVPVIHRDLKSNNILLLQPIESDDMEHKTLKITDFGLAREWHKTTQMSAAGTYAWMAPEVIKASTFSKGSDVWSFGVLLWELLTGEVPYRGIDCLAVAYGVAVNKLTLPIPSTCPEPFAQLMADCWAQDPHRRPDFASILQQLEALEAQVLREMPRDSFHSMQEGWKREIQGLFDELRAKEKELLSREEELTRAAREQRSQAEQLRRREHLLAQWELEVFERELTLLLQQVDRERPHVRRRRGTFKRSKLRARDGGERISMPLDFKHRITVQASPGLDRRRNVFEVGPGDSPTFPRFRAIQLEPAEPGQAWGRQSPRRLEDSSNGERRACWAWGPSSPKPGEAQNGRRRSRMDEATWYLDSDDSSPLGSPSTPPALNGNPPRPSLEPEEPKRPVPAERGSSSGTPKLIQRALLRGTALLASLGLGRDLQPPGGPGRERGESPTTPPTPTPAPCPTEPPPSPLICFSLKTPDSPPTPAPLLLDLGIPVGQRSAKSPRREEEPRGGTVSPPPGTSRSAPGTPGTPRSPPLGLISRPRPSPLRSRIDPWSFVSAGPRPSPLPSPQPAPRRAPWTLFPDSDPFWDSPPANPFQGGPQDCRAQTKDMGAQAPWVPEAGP
T7 sequence (Q9Y4K4 whole entry): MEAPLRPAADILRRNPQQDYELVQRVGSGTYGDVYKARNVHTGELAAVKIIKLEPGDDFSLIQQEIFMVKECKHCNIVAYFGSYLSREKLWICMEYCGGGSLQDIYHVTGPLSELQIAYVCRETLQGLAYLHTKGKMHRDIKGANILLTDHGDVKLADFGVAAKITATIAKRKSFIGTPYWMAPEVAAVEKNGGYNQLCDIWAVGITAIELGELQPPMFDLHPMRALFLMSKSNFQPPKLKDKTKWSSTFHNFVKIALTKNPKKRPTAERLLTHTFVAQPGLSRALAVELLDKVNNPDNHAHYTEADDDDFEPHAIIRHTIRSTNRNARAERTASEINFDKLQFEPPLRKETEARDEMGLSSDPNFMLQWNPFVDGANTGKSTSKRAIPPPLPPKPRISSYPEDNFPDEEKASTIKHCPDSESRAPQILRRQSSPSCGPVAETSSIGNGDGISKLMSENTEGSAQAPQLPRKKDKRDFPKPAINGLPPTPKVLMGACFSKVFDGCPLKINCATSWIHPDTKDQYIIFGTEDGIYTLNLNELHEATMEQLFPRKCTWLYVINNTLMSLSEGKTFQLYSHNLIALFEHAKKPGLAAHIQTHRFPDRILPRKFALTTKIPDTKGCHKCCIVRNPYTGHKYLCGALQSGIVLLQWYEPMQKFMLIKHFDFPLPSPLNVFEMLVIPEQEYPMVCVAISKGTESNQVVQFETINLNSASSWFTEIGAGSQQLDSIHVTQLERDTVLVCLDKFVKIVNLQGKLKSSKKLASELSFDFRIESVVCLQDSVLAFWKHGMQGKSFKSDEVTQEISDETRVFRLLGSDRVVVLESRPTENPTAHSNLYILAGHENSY
T3 sequence (P51451 whole entry): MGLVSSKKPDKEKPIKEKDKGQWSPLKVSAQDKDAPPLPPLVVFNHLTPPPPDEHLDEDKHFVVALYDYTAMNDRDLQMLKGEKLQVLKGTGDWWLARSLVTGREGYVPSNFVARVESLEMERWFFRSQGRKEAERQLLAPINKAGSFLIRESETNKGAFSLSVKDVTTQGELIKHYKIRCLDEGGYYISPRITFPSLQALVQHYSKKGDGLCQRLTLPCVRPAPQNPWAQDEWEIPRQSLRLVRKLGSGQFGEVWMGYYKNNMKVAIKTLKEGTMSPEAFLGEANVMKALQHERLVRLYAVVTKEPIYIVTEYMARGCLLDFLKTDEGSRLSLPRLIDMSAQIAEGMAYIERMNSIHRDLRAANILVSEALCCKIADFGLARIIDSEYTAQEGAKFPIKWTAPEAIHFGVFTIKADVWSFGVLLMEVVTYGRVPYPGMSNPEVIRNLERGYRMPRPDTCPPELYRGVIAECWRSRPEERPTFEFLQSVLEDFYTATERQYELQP
T6 sequence (Q9H2K8 whole entry): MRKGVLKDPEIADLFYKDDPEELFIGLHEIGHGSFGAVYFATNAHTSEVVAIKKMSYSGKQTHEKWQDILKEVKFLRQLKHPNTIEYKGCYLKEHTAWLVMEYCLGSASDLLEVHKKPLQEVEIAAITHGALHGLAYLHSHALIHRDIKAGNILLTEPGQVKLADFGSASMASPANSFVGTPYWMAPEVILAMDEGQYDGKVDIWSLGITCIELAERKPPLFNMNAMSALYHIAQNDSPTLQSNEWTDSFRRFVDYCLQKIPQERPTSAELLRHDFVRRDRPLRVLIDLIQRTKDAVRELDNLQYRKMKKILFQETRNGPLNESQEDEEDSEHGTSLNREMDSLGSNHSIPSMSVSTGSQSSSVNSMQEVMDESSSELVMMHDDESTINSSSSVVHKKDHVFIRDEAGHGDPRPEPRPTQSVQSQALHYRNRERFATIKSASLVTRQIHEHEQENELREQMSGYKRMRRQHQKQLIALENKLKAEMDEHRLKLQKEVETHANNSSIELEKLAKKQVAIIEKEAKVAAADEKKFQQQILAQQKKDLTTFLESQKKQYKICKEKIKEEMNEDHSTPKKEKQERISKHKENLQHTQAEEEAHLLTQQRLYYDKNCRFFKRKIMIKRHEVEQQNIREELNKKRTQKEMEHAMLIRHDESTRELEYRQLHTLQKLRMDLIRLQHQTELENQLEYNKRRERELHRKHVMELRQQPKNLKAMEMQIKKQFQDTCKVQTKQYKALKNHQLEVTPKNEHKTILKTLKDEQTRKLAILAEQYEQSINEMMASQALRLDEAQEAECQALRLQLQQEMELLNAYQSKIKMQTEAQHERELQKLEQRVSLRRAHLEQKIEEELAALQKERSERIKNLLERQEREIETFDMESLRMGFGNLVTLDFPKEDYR
T5 sequence (Q8N4C8 whole entry): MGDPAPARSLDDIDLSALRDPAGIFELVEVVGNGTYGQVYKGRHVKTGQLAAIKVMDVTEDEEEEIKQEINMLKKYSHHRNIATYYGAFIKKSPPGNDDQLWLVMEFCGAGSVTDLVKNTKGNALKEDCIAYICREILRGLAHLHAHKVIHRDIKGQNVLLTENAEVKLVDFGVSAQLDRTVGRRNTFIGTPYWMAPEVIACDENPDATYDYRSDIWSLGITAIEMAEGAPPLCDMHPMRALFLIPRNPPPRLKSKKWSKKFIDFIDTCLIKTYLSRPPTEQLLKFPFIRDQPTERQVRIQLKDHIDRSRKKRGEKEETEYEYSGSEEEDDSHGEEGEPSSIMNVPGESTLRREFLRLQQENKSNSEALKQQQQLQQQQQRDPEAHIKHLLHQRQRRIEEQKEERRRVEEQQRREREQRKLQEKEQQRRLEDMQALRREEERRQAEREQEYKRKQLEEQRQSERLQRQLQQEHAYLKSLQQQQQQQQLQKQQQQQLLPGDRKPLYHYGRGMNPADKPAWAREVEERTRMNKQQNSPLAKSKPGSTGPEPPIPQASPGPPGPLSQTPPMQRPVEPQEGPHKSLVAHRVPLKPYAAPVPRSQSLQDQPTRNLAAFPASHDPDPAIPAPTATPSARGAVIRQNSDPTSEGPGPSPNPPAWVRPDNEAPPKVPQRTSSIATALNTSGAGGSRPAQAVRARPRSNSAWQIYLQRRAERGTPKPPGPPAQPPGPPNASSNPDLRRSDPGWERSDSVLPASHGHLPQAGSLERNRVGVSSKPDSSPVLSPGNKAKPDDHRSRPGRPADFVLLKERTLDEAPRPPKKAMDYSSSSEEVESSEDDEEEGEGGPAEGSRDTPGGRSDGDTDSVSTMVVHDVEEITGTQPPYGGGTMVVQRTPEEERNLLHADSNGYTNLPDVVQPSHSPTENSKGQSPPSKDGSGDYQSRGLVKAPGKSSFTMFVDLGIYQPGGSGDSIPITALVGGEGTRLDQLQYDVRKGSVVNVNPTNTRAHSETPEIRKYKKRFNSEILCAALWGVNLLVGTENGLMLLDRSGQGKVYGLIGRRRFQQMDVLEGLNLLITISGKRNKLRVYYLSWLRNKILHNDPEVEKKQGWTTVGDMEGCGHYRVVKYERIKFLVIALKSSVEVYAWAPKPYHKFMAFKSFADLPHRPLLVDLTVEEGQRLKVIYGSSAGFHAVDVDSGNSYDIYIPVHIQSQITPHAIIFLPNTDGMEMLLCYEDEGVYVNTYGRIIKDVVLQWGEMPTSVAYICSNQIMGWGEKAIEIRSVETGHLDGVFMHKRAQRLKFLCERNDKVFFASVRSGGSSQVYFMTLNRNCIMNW
T1 sequence (P09769 whole entry): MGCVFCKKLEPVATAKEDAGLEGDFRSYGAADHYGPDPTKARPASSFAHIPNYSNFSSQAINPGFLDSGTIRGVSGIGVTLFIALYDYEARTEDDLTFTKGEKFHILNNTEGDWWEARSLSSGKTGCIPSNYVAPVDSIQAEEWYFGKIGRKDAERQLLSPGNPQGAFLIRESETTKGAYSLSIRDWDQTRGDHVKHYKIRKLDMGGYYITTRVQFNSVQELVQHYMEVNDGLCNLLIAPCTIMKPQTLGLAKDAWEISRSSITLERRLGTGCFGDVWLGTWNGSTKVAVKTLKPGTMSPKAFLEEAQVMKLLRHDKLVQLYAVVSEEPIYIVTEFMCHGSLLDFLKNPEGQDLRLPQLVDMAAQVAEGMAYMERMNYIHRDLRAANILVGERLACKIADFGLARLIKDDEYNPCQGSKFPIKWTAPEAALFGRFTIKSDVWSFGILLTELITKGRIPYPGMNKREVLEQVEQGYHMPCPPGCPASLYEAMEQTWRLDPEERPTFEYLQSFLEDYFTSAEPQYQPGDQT

CCCS(=O)(=O)Nc1ccc(F)c(C(=O)c2c[nH]c3ncc(-c4ccc(Cl)cc4)cc23)c1F [vemurafenib]
IC50 (FGR): 63 nM
inhibition of ASK1 (ASK1): no significant inhibition
IC50 (BLK): 547 nM
IC50 (ASK1 (MAP3K5)): > 1000 nM
IC50 (MINK (MINK1)): > 1000 nM
IC50 (TAOK3): > 1000 nM
IC50 (BRK (PTK6)): 213 nM
UV-induced upregulation of phospho-JNK and phospho-p38 [1]: suppressed
IC50 (MAP4K5): 51 nM

CCCS(=O)(=O)Nc1ccc(F)c(C(=O)c2c[nH]c3ncc(Cl)cc23)c1F [PLX4720]
suppression of UV-induced apoptosis (NHEK cells): at least 70%
growth of A375 and WM35 cells [2]: suppress the growth
proliferation of SRB12 and HaCaT cells ([3]; 1 μM, at least 28 days): slight decrement in the proliferation
proliferation, all cells ([3]; 5 μM, at least 28 days): decreased proliferation
proliferative advantage ([3]; cells without oncogenic RAS or BRAF mutations): no significant proliferative advantage
suppression of UV-induced apoptosis (HaCaT cells [4]): at least 70%
colony formation [5]: significant colony formation advantage
phospho-ERK expression (phospho-ERK): strongly suppressed
remaining binding at 0.05 µM (MLK3 (MAP3K11); read-out: Percent control (50 nM)): 100%
remaining binding at 0.2 µM (MLK3 (MAP3K11); read-out: Percent control (200 nM)): 100%
remaining binding at 1 µM (MLK3 (MAP3K11); read-out: Percent control (1000 nM)): 100%
remaining binding at 10 µM (MLK3 (MAP3K11); read-out: Percent control (10 μM)): 100%
doxorubicin-induced apoptosis (Annexin V+, TMRE-low cells) (HaCaT cells [6]): significant decrease in apoptosis
